Measurements published in patent US20220111019A1, “BRCA1 MODULATING COMPOUNDS, FORMULATIONS THEREOF, AND USES THEREOF” (VIRGINIA TECH INTELLECTUAL PROPERTIES, INC., priority 2018, published 2022).
Entries after “also recorded” stand apart in the source; their conditions may differ.

Key:
[1] = system: p53R306; experiment: Western blot quantification of p53 in lysates of treated HCC1937 cells; type: cell-based, human; settings: HCC1937 cell lysates; for decrease in p53 level: single treatment (ML364 or H2O2)
Protocol: (§1) Cell lysate preparations. For whole cell lysate preparations, HCC1937 cells were treated by adding 1 mM H2O2 to the culture media for 10-20 minutes, while incubating cells at 37° C. and 5% CO2. Following each incubation time, cells were washed with 1× PBS (Sigma) to eliminate residual H2O2. The cells were then treated with 7 μM-9 μM ML364 (Axon Medchem) for up to 48 hours at 37° C. and 5% CO2. Control cells were cultured in media lacking H2O2 and/or ML364 during the same time period. Cells were collected and washed with ice-cold 1× PBS once followed by centrifugation at 500×g for 5 minutes. Cell pellets were lysed by resuspending the pellets in buffer solution containing 20 mM HEPES (pH 6.8), 150 mM NaCl, 2.5 mM CaCl2, 2.5 mM MgCl2, 1 mM EDTA, 2% Nonidet-P40 (NP40), 1% Nadeoxycholate, 2× protease inhibitors (Sigma), 1× phosphatase inhibitors (Sigma), and 8% glycerol. The lysis mixture was incubated on ice for 30 minutes and centrifuged at 21,000×g for 15 minutes at 4° C. The supernatants were collected and protein concentrations were quantified using the standard Pierce Bradford assay.
(§2) SDS-Page, immunoblotting, and densitometry measurements. Protein fractions were also analyzed by SDS-PAGE denaturing gels followed by staining with SimplyBlue SafeStain solution (Invitrogen) or Western blotting as previously described (10). For Western blot analysis, the following primary antibodies were used: BRCA1 (C-20; Santa Cruz Biotechnology, sc-642), ubiquitin-pAb (Enzo Life Sciences, ADI-SPA-200), p53 (DO-1; Santa Cruz Biotechnology, sc-126), K63-linkage specific polyubiquitin (D7A11; Cell Signaling, #5621) and p-actin (Sigma-Aldrich, A5441). Western blot quantification was performed using Image Labrm Software (Bio-Rad). The intensity of each band was selected using the volume tool. Local subtraction and linear regression methods were implemented to eliminate the local background values and to quantify the band intensities.

[2] = system: 8-Oxo-Guanine (8-Oxo-G) accumulation in HCC1937 cells; experiment: Immunofluorescence detection of 8-Oxo-Guanine DNA lesions; type: cell-based, human; settings: for 8-Oxo-G accumulation in and around the nucleus: single treatment (ML364 in IC50 range or 1 mM H2O2 10 minutes)
Protocol: Fluorescence microscopy. The production of 8-Oxo-Guanine (8-Oxo-G) DNA lesions was detected by fluorescence imaging as previously described (10, 11). Briefly, HCC1937 cells (about 40,000 cells/chamber) were plated in an eight-chamber slide and incubated at 37° C. and 5% CO2 overnight. Cells were treated with complete culture media containing 1 mM H2O2 for 10-20 minutes to induce oxidative damage in the nucleus. Cells were then wash with 1× PBS and treated with ML364 (7 μM-9 μM) for up to 48 hours at 37° C. and 5% CO2. Control cells were cultured in media without H2O2 and ML364 during the same time period. Cells were washed with standard PBS solution and fixed with 4% paraformaldehyde (Electron Microscopy Sciences) for 15 minutes. The fixed cells were permiabilized by PBS solution containing 0.5% Triton X-100 (Sigma) for 10 minutes. After 1-hour blocking step with PBS supplemented with 10% normal goat serum (Jackson Immuno Research) and 0.2% Triton X-100, cells were incubated with anti-8-OxoG DNA Lesion (483.15; Santa Cruz Biotechnology) at 4° C. overnight. The 8-OxoG DNA lesions were detected with goat anti-mouse IgM-TR (Santa Cruz Biotechnology) and nuclei were stained with Hoechst 33342. An inverted fluorescence microscope (Zeiss Axio Vert.A1; Carl Zeiss Microscopy) was used to image the cells.
To determine the effect of ML364 on genomic stability, we performed immunofluorescent imaging on HCC1937 breast cancer cells to detect 8-Oxo-Guanine (8-Oxo-G) (FIG. 13C). The nuclear accumulation of 8-Oxo-G in cells indicates deficiencies in DNA damage repair (10, 11). Cells were treated with H2O2 to induce oxidative DNA damage. The ML364 drug was then administered to the cells in the IC50 range. The accumulation of 8-Oxo-G was detected using monoclonal antibodies against the substrate and fluorescently-labeled secondary antibodies. […] Under oxidative stress conditions, there was a minor degree of 8-Oxo-G detected in nuclear region following 10 minutes of treatment. […]

[3] = system: mutated BRCA1; experiment: Western blot quantification of BRCA1 in lysates of treated HCC1937 cells; type: cell-based, human; settings: HCC1937 cell lysates; for decrease in BRCA1 level: single treatment (ML364 or H2O2)
Protocol: as §1, §2

[4] = system: HCC1937 cells; experiment: MTS cell viability assay after H2O2 and/or ML364 treatment; type: cell-based, human; settings: 1 mM H2O2 10 min, vs untreated cells
Protocol: (§3) Cell viability and proliferation assays. To determine cellular viability, we used the CellTiter 96® AQueous One Solution Cell Proliferation Assay (MTS; Promega). HCC1937 were seeded (about 4000 cells per well) in a 96-well plate at 37° C. and 5% CO2 overnight. Following a 10-minute incubation with culture media containing 1 mM H2O2, cells were washed with PBS solution and further treated with 7 μM ML364 for 24 hours at 37° C. with 5% CO2. Control cells were cultured in media lacking H2O2 and/or ML364 during the same time period. Culture media and containing MTS reagent was added to each well. The titer plate was incubated 37° C. and 5% CO2 for 1-4 hours. Absorbance values were measured at 490 nm using iMark microplate reader (Bio-Rad). MTS was also used to determine cell growth following ML364 treatment. HCC1937 cells were plated (about 1500 cells per well) in a 96-well plate at 37° C. and 5% CO2 overnight. Cells were treated with DMSO and ML364 at the different doses (2.5 μM-80 μM). After 3 days of incubation, cell viability was measured using the MTS reagent. Cellular survival was calculated by dividing the absorbance of the treated groups by those of the untreated groups (DMSO). Values for the half-maximal inhibitory concentration (IC50) were obtained using Prism software package (GraphPad).
Targeting cancer cells that express mutated BRCA1. As described elsewhere herein, mutated BRCA1 can be fine-tuned in vitro. The application of this aspect of the techology to treat cancer cells was evaluated. Enhancing the activity of tumor suppressors in healthy cells can facilitate their growth and resilience. Conversely, treating cancer cells with drugs that limit DNA repair may lessen their survival. Poly(ADP-Ribose) Polymerase (PARP) inhibitors have been used to treat BRCA1-related cancers (25-28). A limited-repair paradigm approach was developed and used treated breast cancer cells (HCC1937 line) with the DUB inhibitor, ML364 (Axon Ligands™). […] The viability of treated cells and untreated cells was quantified using MTS assay measurements.

[5] = system: BRCA1; settings: HCC70 cells, 1 mM H2O2, replicate experiments
Protocol: (§4) Authentication of cells, cell culture, and protein enrichment. Breast cancer cells (HCC70 and HCC1937 lines) used in this study were purchased from the American Type Culture Collection (ATCC) and independently characterized by ATCC as being triple negative primary ductal carcinoma cells. For all experiments, cells were promptly used within 6 months of resuscitation. Cells were cultured in RPMI-1640 (Mediatech) supplemented with 10% fetal bovine serum (ATCC) and 0.5× penicillin-streptomycin (Thermo Fisher) at 37° C. and 5% CO2 environment. BRCA1-BARD1 complexes were enriched as previously described (25). Briefly, about 1,000,000 cells were collected using Trypsin-EDTA (Thermo Fisher) followed by centrifugation (500×g, 5 minutes). For experiments involving hydrogen peroxide (H2O2), cells were collected with cell scrapers after treated with 1 mM of H2O2 (Sigma Aldrich) for 40 minutes at 37° C. and 5% CO2. Sub-cellular fractions (cytoplasmic and nuclear) were separated using the NE-PER kit (Thermo Scientific). The soluble nuclear material was incubated with Ni-NTA agarose beads (Qiagen) and incubated with rotation for 1 hour at 4° C. The beads were washed with five bed volumes of 20 mM HEPES buffer (pH 7.2, 140 mM NaCl, 2 mM CaCl2, 2 mM MgCl2 and 5 mM imidazole).

[6] = system: BARD1; settings: HCC70 cells, 1 mM H2O2, replicate experiments
Protocol: as §4

[7] = system: HCC1937 cells; experiment: MTS cell growth assay after ML364 treatment (IC50); type: cell-based, human; settings: 3 days of incubation, doses 2.5 μM-80 μM, read-out: half maximal inhibitory concentration (IC50) range
Protocol: as §3, with “Cells were treated with DMSO and ML364 at the different doses (2.5 μM-80 μM).” left out, “Values for the half-maximal inhibitory concentration (IC50) were obtained using Prism software package (GraphPad).” left out
Targeting cancer cells that express mutated BRCA1. […] The application of this aspect of the techology to treat cancer cells was evaluated. […] The viability of treated cells and untreated cells was quantified using MTS assay measurements.

[8] = system: p53; experiment: Ubiquitin ligase assay in T98G nuclear extracts; type: biochemical, human; settings: T98G nuclear reaction mixtures, 37° C., 1 hour, vs control samples
Protocol: Ubiquitin ligase assay. Aliquots of DUB-treated or “restored” BRCA1-BARD1 (0.2 mg/ml) were incubated with 10 μM ML364 (USP2 inhibitor) at 37° C. for 1 hour to halt USP2 activity. Samples were then stored overnight at 4° C. The restored BRCA1-BARD1 fractions were added in varying amounts to soluble nuclear extracts prepared from T98G cells. T98G cells naturally produced low levels of BRCA1. Control samples lacked restored BRCA1-BARD1. The reaction mixtures were incubated in a water bath at 37° C. for 1 hour.
Wild-type p53-caught in the act of repair. The extent to which restored BRCA1 could enhance the ubiquitin ligase activity of cells with inherently low levels of BRCA1 (T98G line) (FIGS. 16A-16C) was evaluated. Quantities of restored BRCA1-BARD1 were added to nuclear reaction mixtures prepared from T98G cells, and changes in ubiquitination were assessed over multiple experiments (FIG. 12A). To simplify the results, modifications to the p53 monomer was first evaluated. According to Western blots, full-length p53 migrated at about 50 kDa while ubiquitnated monomers migrated close to about 68 kDa (FIGS. 12B and 16A-16C). Proteins receiving K63-linked ubiquitin adducts are often involved in autophagy and DNA repair (22), (23), (24). […] As the T98G cells naturally produced little BRCA1, we attributed the increase in ubiquitin ligase activity to the restored BRCA1-BARD1 supplement.

Row | IC50 [7] | increase in K63-type ubiquitin adducts on p53 (ubiquitination of p53) [8] | Compound | decrease in p53 level [1] | 8-Oxo-G accumulation in and around the nucleus [2] | decrease in BRCA1 level [3] | cytotoxicity at 1000 µM ([4]; Homo sapiens, ML364 and H2O2 given separately, 7 μM ML364 24 hours, read-out: decrease in viability) | decrease in BRCA1 level [5] | decrease in BARD1 level [6] | decline in p53 level, combination of H2O2 and ML364 ([1]; H2O2 then ML364) | 8-Oxo-G accumulation, combination of H2O2 and ML364 ([2]; 1 mM H2O2 then ML364 in IC50 range, up to 48 hours) | decline in BRCA1 level, combination of H2O2 and ML364 ([3]; H2O2 then ML364) | decline in viability, combined treatment ([4]; then 7 μM ML364 24 hours) | decrease in viability ([4]; ML364 and H2O2 given separately, 7 μM ML364 24 hours)
1 |  |  | OO [H2O2, hydrogen peroxide] | 15-20% | minor degree | 15-20% | ~50% | 10-20% | 10-20% |  |  |  |  | 
2 | 7 to 10 µM |  | Cc1ccc(S(=O)(=O)Nc2cc(C(F)(F)F)ccc2C(=O)Nc2nc(-c3ccccc3)cs2)cc1 [ML364] | about 30% | more abundant; also recorded: higher level | about 30% |  |  |  | about 50% | greatest 8-Oxo-G buildup; also recorded: greatest degree; also recorded: higher level | about 50% | about 70% | about 50%
3 |  | about 24% | wild-type BRCA1-BARD1: wild type BRCA1-BARD1 heterodimer used as supplement for comparison |  |  |  |  |  |  |  |  |  |  | 
